Measurements reported in US20020137929A1, “1 - (3-heterocyclylphenyl) isothiourea, -isourea, -guanidine and -amidine herbicidal agents” (Intellectual Property Department, BASF Aktiengesellschaft, priority 1998, published 2002).

Legend:
[1] = system: CASOB (Sicklepod); assay: Postemergence herbicidal evaluation; type: in vivo, Cassia obtusifolia; details: postemergence
How it was run: (§1)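 Seedlings grown about two weeks were sprayed at 40 psi with compound dispersed in 50/50 acetone/water plus 0.5% TWEEN 20, at about 0.0156 to 0.500 kg/ha. Plants were kept in the greenhouse and scored 4–5 weeks later on a 0–9 visual scale against untreated controls.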

[2] = system: SAGPY (Arrowhead (Pygmaea)); assay: Preemergence weed control under flooded paddy conditions; type: in vivo, Sagittaria pygmaea; details: rated 3-4 weeks after treatment
How it was run: (§2)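 Values are visual 0-9 scores against a control for a preemergence application into paddy flood water at about 0.0313 to 0.500 kg/ha. Greenhouse duration was three to four weeks.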

[3] = system: CHEAL (Lambsquarters, Common); assay: Postemergence herbicidal evaluation; type: in vivo, Chenopodium album; details: postemergence
How it was run: as §1

[4] = system: AMBEL (Ragweed, Common); assay: Preemergence herbicidal evaluation; type: in vivo, Ambrosia artemisifolia; details: rated 4-5 weeks after treatment
How it was run: (§3)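 Visual 0-9 rating vs control (stand, vigor, malformation, size, chlorosis, overall appearance), scored 4-5 wk after spraying. Seeded soil cups were treated preemergence with compound in aqueous acetone, ~0.0156-0.500 kg/ha equivalent.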

[5] = system: GLXMAW (Soybean, Williams); assay: Preemergence herbicidal evaluation; type: in vivo, Glycine max, (L.) Merr. cv Williams; details: rated 4-5 weeks after treatment
How it was run: as §3

[6] = system: TRZAWR (Wheat, Winter, cv Riband); assay: Postemergence herbicidal evaluation; type: in vivo, Triticum aestivum; details: postemergence
How it was run: as §1

[7] = system: ABUTH (Velvetleaf); assay: Preemergence herbicidal evaluation; type: in vivo, Abutilon theophrasti; details: rated 4-5 weeks after treatment
How it was run: as §3

[8] = system: GLXMAW (Soybean, Williams); assay: Postemergence herbicidal evaluation; type: in vivo, Glycine max, (L.) Merr. cv Williams; details: postemergence
How it was run: as §1

[9] = system: ORYSAT (Rice, Tebonnet); assay: Preemergence herbicidal evaluation; type: in vivo, Oryza sativa, (L.) Tebonnet; details: rated 4-5 weeks after treatment
How it was run: as §3

[10] = system: CASOB (Sicklepod); assay: Preemergence herbicidal evaluation; type: in vivo, Cassia obtusifolia; details: rated 4-5 weeks after treatment
How it was run: as §3

[11] = system: IPOHE (Morningglory, Ivyleaf); assay: Preemergence herbicidal evaluation; type: in vivo, Ipomoea hederacea; details: rated 4-5 weeks after treatment
How it was run: as §3

[12] = system: AMBEL (Ragweed, Common); assay: Postemergence herbicidal evaluation; type: in vivo, Ambrosia artemisifolia; details: postemergence
How it was run: as §1

[13] = system: IPOHE (Morningglory, Ivyleaf); assay: Postemergence herbicidal evaluation; type: in vivo, Ipomoea hederacea; details: postemergence
How it was run: as §1

[14] = system: MOOVA (Monochoria); assay: Preemergence weed control under flooded paddy conditions; type: in vivo, Monochoria vaginalis; details: rated 3-4 weeks after treatment
How it was run: as §2

[15] = system: ECHCG (Barnyardgrass); assay: Postemergence herbicidal evaluation; type: in vivo, Echinochloa crus-galli; details: postemergence
How it was run: as §1

[16] = system: CHEAL (Lambsquarters, Common); assay: Preemergence herbicidal evaluation; type: in vivo, Chenopodium album; details: rated 4-5 weeks after treatment
How it was run: as §3

COCCOC(=O)CN1C(=O)CSC1=Nc1cc(-n2c(=O)cc(C(F)(F)F)n(C)c2=O)c(F)cc1Cl [Compound 107, 2-Methoxyethyl 2-{{2-chloro-5-[3,6-dihydro-3-methyl-2,6-dioxo-4-(trifluoromethyl)-1(2H)-pyrimidinyl]-4-fluorophenyl}imino}-4-oxo-3-thiazolidineacetate]
herbicidal rating CASOB ([1]; rate 0.0158 kg/ha): 0.0
herbicidal rating CASOB ([1]; rate 0.0315 kg/ha): 0.0
herbicidal rating CASOB ([1]; rate 0.0630 kg/ha): 0.0
SAGPY herbicidal effect rating ([2]; 0.0313 kg/ha): 0.0
SAGPY herbicidal effect rating ([2]; 0.0625 kg/ha): 0.0
SAGPY herbicidal effect rating ([2]; 0.1250 kg/ha): 0.0
SAGPY herbicidal effect rating ([2]; 0.2500 kg/ha): 3.0
herbicidal rating CHEAL ([3]; rate 0.0158 kg/ha): 2.0
herbicidal rating CHEAL ([3]; rate 0.0315 kg/ha): 2.0
herbicidal rating CHEAL ([3]; rate 0.0630 kg/ha): 1.0
Preemergence herbicidal rating AMBEL ([4]; rate 0.0313 kg/ha): 0.0
Preemergence herbicidal rating AMBEL ([4]; rate 0.0625 kg/ha): 0.0
Preemergence herbicidal rating AMBEL ([4]; rate 0.1250 kg/ha): 0.0
Preemergence herbicidal rating AMBEL ([4]; rate 0.2500 kg/ha): 2.0
Preemergence herbicidal rating GLXMAW ([5]; rate 0.0313 kg/ha): 0.0
Preemergence herbicidal rating GLXMAW ([5]; rate 0.0625 kg/ha): 1.0
Preemergence herbicidal rating GLXMAW ([5]; rate 0.1250 kg/ha): 2.0
Preemergence herbicidal rating GLXMAW ([5]; rate 0.2500 kg/ha): 3.0
herbicidal rating TRZAWR ([6]; rate 0.0158 kg/ha): 2.0
herbicidal rating TRZAWR ([6]; rate 0.0315 kg/ha): 3.0
herbicidal rating TRZAWR ([6]; rate 0.0630 kg/ha): 5.0
Preemergence herbicidal rating ABUTH ([7]; rate 0.0313 kg/ha): 0.0
Preemergence herbicidal rating ABUTH ([7]; rate 0.0625 kg/ha): 1.0
Preemergence herbicidal rating ABUTH ([7]; rate 0.1250 kg/ha): 9.0
Preemergence herbicidal rating ABUTH ([7]; rate 0.2500 kg/ha): 9.0
herbicidal rating GLXMAW ([8]; rate 0.0158 kg/ha): 4.5
herbicidal rating GLXMAW ([8]; rate 0.0315 kg/ha): 5.0
herbicidal rating GLXMAW ([8]; rate 0.0630 kg/ha): 5.5
Preemergence herbicidal rating ORYSAT ([9]; rate 0.0313 kg/ha): 0.0
Preemergence herbicidal rating ORYSAT ([9]; rate 0.0625 kg/ha): 0.0
Preemergence herbicidal rating ORYSAT ([9]; rate 0.1250 kg/ha): 0.0
Preemergence herbicidal rating ORYSAT ([9]; rate 0.2500 kg/ha): 2.0
Preemergence herbicidal rating CASOB ([10]; rate 0.0313 kg/ha): 0.0
Preemergence herbicidal rating CASOB ([10]; rate 0.0625 kg/ha): 0.0
Preemergence herbicidal rating CASOB ([10]; rate 0.1250 kg/ha): 0.0
Preemergence herbicidal rating CASOB ([10]; rate 0.2500 kg/ha): 1.0
Preemergence herbicidal rating IPOHE ([11]; rate 0.0313 kg/ha): 0.0
Preemergence herbicidal rating IPOHE ([11]; rate 0.0625 kg/ha): 0.0
Preemergence herbicidal rating IPOHE ([11]; rate 0.1250 kg/ha): 1.0
Preemergence herbicidal rating IPOHE ([11]; rate 0.2500 kg/ha): 7.0
herbicidal rating AMBEL ([12]; rate 0.0158 kg/ha): 2.0
herbicidal rating AMBEL ([12]; rate 0.0315 kg/ha): 2.0
herbicidal rating AMBEL ([12]; rate 0.0630 kg/ha): 2.0
herbicidal rating IPOHE ([13]; rate 0.0158 kg/ha): 9.0
herbicidal rating IPOHE ([13]; rate 0.0315 kg/ha): 7.0
herbicidal rating IPOHE ([13]; rate 0.0630 kg/ha): 9.0
MOOVA herbicidal effect rating ([14]; 0.0313 kg/ha): 4.0
MOOVA herbicidal effect rating ([14]; 0.0625 kg/ha): 6.0
MOOVA herbicidal effect rating ([14]; 0.1250 kg/ha): 7.0
MOOVA herbicidal effect rating ([14]; 0.2500 kg/ha): 9.0
herbicidal rating ECHCG ([15]; rate 0.0158 kg/ha): 1.0
herbicidal rating ECHCG ([15]; rate 0.0315 kg/ha): 1.0
herbicidal rating ECHCG ([15]; rate 0.0630 kg/ha): 3.0
Preemergence herbicidal rating CHEAL ([16]; rate 0.0625 kg/ha): 6.0
Preemergence herbicidal rating CHEAL ([16]; rate 0.1250 kg/ha): 9.0
Preemergence herbicidal rating CHEAL ([16]; rate 0.2500 kg/ha): 9.0

Cn1c(C(F)(F)F)cc(=O)n(-c2cc(N=C3SCC(=O)N3CC(=O)OCC#N)c(Cl)cc2F)c1=O [Compound 109, 2-{{2-Chloro-5-[3,6-dihydro-3-methyl-2,6-dioxo-4-(trifluoromethyl)-1(2H)-pyrimidinyl]-4-fluorophenyl}imino}-4-oxo-3-thiazolidineacetic acid, ester with glycolonitrile]
herbicidal rating CASOB ([1]; rate 0.0158 kg/ha): 1.0
herbicidal rating CASOB ([1]; rate 0.0315 kg/ha): 7.0
herbicidal rating CASOB ([1]; rate 0.0630 kg/ha): 9.0
SAGPY herbicidal effect rating ([2]; 0.0313 kg/ha): 4.5
SAGPY herbicidal effect rating ([2]; 0.0625 kg/ha): 7.5
SAGPY herbicidal effect rating ([2]; 0.1250 kg/ha): 9.0
SAGPY herbicidal effect rating ([2]; 0.2500 kg/ha): 9.0
herbicidal rating CHEAL ([3]; rate 0.0158 kg/ha): 9.0
herbicidal rating CHEAL ([3]; rate 0.0315 kg/ha): 9.0
herbicidal rating CHEAL ([3]; rate 0.0630 kg/ha): 9.0
Preemergence herbicidal rating AMBEL ([4]; rate 0.0156 kg/ha): 3.0
Preemergence herbicidal rating AMBEL ([4]; rate 0.0313 kg/ha): 3.0
Preemergence herbicidal rating AMBEL ([4]; rate 0.0625 kg/ha): 8.0
Preemergence herbicidal rating AMBEL ([4]; rate 0.1250 kg/ha): 9.0
Preemergence herbicidal rating AMBEL ([4]; rate 0.2500 kg/ha): 9.0
Preemergence herbicidal rating AMBEL ([4]; rate 0.5000 kg/ha): 9.0
Preemergence herbicidal rating GLXMAW ([5]; rate 0.0156 kg/ha): 1.5
Preemergence herbicidal rating GLXMAW ([5]; rate 0.0313 kg/ha): 2.0
Preemergence herbicidal rating GLXMAW ([5]; rate 0.0625 kg/ha): 5.0
Preemergence herbicidal rating GLXMAW ([5]; rate 0.1250 kg/ha): 7.5
Preemergence herbicidal rating GLXMAW ([5]; rate 0.2500 kg/ha): 9.0
Preemergence herbicidal rating GLXMAW ([5]; rate 0.5000 kg/ha): 9.0
herbicidal rating TRZAWR ([6]; rate 0.0158 kg/ha): 3.0
herbicidal rating TRZAWR ([6]; rate 0.0315 kg/ha): 4.0
herbicidal rating TRZAWR ([6]; rate 0.0630 kg/ha): 4.5
Preemergence herbicidal rating ABUTH ([7]; rate 0.0156 kg/ha): 6.5
Preemergence herbicidal rating ABUTH ([7]; rate 0.0313 kg/ha): 9.0
Preemergence herbicidal rating ABUTH ([7]; rate 0.0625 kg/ha): 9.0
Preemergence herbicidal rating ABUTH ([7]; rate 0.1250 kg/ha): 9.0
Preemergence herbicidal rating ABUTH ([7]; rate 0.2500 kg/ha): 9.0
Preemergence herbicidal rating ABUTH ([7]; rate 0.5000 kg/ha): 9.0
herbicidal rating GLXMAW ([8]; rate 0.0158 kg/ha): 7.0
herbicidal rating GLXMAW ([8]; rate 0.0315 kg/ha): 8.0
herbicidal rating GLXMAW ([8]; rate 0.0630 kg/ha): 8.0
Preemergence herbicidal rating ORYSAT ([9]; rate 0.0156 kg/ha): 0.0
Preemergence herbicidal rating ORYSAT ([9]; rate 0.0313 kg/ha): 1.0
Preemergence herbicidal rating ORYSAT ([9]; rate 0.0625 kg/ha): 2.0
Preemergence herbicidal rating ORYSAT ([9]; rate 0.1250 kg/ha): 4.0
Preemergence herbicidal rating ORYSAT ([9]; rate 0.2500 kg/ha): 5.0
Preemergence herbicidal rating ORYSAT ([9]; rate 0.5000 kg/ha): 6.0
Preemergence herbicidal rating CASOB ([10]; rate 0.0156 kg/ha): 6.5
Preemergence herbicidal rating CASOB ([10]; rate 0.0313 kg/ha): 4.0
Preemergence herbicidal rating CASOB ([10]; rate 0.0625 kg/ha): 5.5
Preemergence herbicidal rating CASOB ([10]; rate 0.1250 kg/ha): 6.5
Preemergence herbicidal rating CASOB ([10]; rate 0.2500 kg/ha): 9.0
Preemergence herbicidal rating CASOB ([10]; rate 0.5000 kg/ha): 9.0
Preemergence herbicidal rating IPOHE ([11]; rate 0.0156 kg/ha): 2.0
Preemergence herbicidal rating IPOHE ([11]; rate 0.0313 kg/ha): 2.0
Preemergence herbicidal rating IPOHE ([11]; rate 0.0625 kg/ha): 5.0
Preemergence herbicidal rating IPOHE ([11]; rate 0.1250 kg/ha): 8.0
Preemergence herbicidal rating IPOHE ([11]; rate 0.2500 kg/ha): 8.0
Preemergence herbicidal rating IPOHE ([11]; rate 0.5000 kg/ha): 9.0
herbicidal rating AMBEL ([12]; rate 0.0158 kg/ha): 9.0
herbicidal rating AMBEL ([12]; rate 0.0315 kg/ha): 9.0
herbicidal rating AMBEL ([12]; rate 0.0630 kg/ha): 9.0
herbicidal rating IPOHE ([13]; rate 0.0158 kg/ha): 9.0
herbicidal rating IPOHE ([13]; rate 0.0315 kg/ha): 9.0
herbicidal rating IPOHE ([13]; rate 0.0630 kg/ha): 9.0
MOOVA herbicidal effect rating ([14]; 0.0313 kg/ha): 7.0
MOOVA herbicidal effect rating ([14]; 0.0625 kg/ha): 9.0
MOOVA herbicidal effect rating ([14]; 0.1250 kg/ha): 9.0
MOOVA herbicidal effect rating ([14]; 0.2500 kg/ha): 9.0
herbicidal rating ECHCG ([15]; rate 0.0158 kg/ha): 0.0
herbicidal rating ECHCG ([15]; rate 0.0315 kg/ha): 3.0
herbicidal rating ECHCG ([15]; rate 0.0630 kg/ha): 3.0
Preemergence herbicidal rating CHEAL ([16]; rate 0.0156 kg/ha): 9.0
Preemergence herbicidal rating CHEAL ([16]; rate 0.0313 kg/ha): 9.0
Preemergence herbicidal rating CHEAL ([16]; rate 0.0625 kg/ha): 9.0
Preemergence herbicidal rating CHEAL ([16]; rate 0.1250 kg/ha): 9.0
Preemergence herbicidal rating CHEAL ([16]; rate 0.2500 kg/ha): 9.0
Preemergence herbicidal rating CHEAL ([16]; rate 0.5000 kg/ha): 9.0
